Key:
testosterone levels = test: Phase II study of J867: total testosterone levels over 12 weeks; type: in vivo, female subjects; conditions: for mean testosterone concentration increase over the treatment period: 12 week treatment, female subjects aged 18-49
Experimental: (§1) The effect of SPRMs on testosterone levels and SHBG levels was studied using various doses of J867 over three months. The study was a phase II, multi-center, randomized, double blind, parallel group study of J867 at doses of 5 mg, 10 mg, and 25 mg once a day (QD)compared to placebo. Approximately 120 female subjects between the ages of 18 and 49 were enrolled in the study and randomly assigned to one of the four dosing groups above. During the 12 week study, testosterone and SHBG were measured at screening visits during weeks 2, 4, 8, and 12 of the study.
FIG. 1 is a graph showing total testosterone levels as a function of time during the study. […] Testosterone concentrations were relatively constant for the group receiving placebo. […] Over the treatment period, the mean testosterone concentrations for the 5 mg QD group increased approximately 7-15 ng/dL; the mean increase for the 10 mg QD group was approximately 15-21 ng/dL; and the mean concentrations observed following treatment with 25 mg QD increased approximately 16-25 ng/dL.

SHBG levels = test: Phase II study of J867: SHBG levels over 12 weeks; type: in vivo, female subjects
Experimental: as §1
SHBG levels were also measured at weeks 2, 4, 8, and 12 of the study.

progesterone receptor = molecular target: T1, progesterone receptor (Oryctolagus cuniculus, UniProt P06186); conditions: rabbit model, scale of 0-4; agonistic/antagonistic effect at the progesterone receptor; cited from earlier work
T1 construct: effects of compounds at the progesterone receptor using a rabbit model; from tissue; host or cells: living rabbit (whole-animal model)
T1 sequence (P06186 1-930): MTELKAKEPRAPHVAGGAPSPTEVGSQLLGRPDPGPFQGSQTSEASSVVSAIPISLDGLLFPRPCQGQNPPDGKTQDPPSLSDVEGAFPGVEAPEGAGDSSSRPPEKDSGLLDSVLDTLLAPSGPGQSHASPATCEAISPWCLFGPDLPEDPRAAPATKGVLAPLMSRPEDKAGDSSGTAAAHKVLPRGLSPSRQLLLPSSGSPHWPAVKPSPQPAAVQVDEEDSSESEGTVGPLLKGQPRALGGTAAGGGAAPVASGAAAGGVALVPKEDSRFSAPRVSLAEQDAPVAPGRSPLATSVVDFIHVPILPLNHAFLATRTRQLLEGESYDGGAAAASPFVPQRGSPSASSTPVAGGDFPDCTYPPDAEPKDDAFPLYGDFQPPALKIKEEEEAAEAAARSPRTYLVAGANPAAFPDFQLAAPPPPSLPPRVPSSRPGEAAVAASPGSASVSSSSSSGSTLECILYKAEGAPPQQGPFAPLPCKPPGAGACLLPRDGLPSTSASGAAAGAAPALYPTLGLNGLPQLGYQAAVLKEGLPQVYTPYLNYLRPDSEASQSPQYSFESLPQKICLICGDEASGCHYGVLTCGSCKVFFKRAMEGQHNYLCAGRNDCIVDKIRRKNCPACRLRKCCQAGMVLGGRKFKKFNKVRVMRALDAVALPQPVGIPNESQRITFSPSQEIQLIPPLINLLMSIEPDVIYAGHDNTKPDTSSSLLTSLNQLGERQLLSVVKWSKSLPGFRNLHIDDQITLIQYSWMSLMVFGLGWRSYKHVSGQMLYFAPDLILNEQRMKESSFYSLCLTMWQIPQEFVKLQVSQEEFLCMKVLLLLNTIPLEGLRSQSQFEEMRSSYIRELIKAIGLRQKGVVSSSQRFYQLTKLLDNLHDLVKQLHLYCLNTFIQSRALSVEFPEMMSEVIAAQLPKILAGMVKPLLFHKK

## COC[C@]1(OC)CC[C@H]2[C@@H]3CCC4=CC(=O)CCC4=C3[C@@H](c3ccc(/C=N/O)cc3)C[C@@]21C [J867, [4-[17β-Methoxy-17α-(methoxymethyl)-3-oxoestra-4,9-dien-11β-yl]benzaldehyd-(1E)-oxim]]
Testosterone levels; 5 mg QD
  mean testosterone concentration increase over the treatment period: 7 to 15 ng/dL
Testosterone levels; 10 mg QD
  mean testosterone concentration increase over the treatment period: 15 to 21 ng/dL
Testosterone levels; 25 mg QD
  mean testosterone concentration increase over the treatment period: 16 to 25 ng/dL
Testosterone levels; all doses (5, 10, 25 mg QD)
  total testosterone levels (FIG. 1): testosterone levels increased with all doses
Testosterone levels; all three dose groups (5, 10, 25 mg QD)
  visit with largest mean increase of testosterone from baseline: week 2 visit
Testosterone levels; all three dose groups, week 12
  testosterone concentrations at the end of the study: still elevated above baseline
SHBG levels; 5 mg QD
  mean level of SHBG during treatment: remained relatively constant
SHBG levels; 10 mg QD
  mean level of SHBG during treatment: decreased from baseline
SHBG levels; 25 mg QD
  mean level of SHBG during treatment: decreased from baseline
SHBG levels; weeks 2, 4, 8, 12, doses not separated
  SHBG during the treatment period of three months (FIG. 2): a decrease in SHBG

## CC#C[C@]1(O)CC[C@H]2[C@@H]3CCC4=CC(=O)CCC4=C3[C@@H](c3ccc(N(C)C)cc3)C[C@@]21C [RU486, mifepristone]
Progesterone receptor
  McPhail score: less than 0.5

## CC(=O)[C@H]1CC[C@H]2[C@@H]3CCC4=CC(=O)CC[C@]4(C)[C@H]3CC[C@]12C [progesterone]
Progesterone receptor
  McPhail score: 4

From patent publication US20040097591A1, “Use of selective progesterone receptor modulators for the treatment of androgen deficiency” (priority 2002, published 2004)
